# B1: tremelimumab: anti-CTLA4 antibody (antibody)
# VH: GVVQPGRSLRLSCAASGFTFSSYGMHWVRQAPGKGLEWVAVIWYDGSNKYYADSVKGRFTISRDNSKNTLYLQMNSLRAEDTAVYYCARDPRGATLYYYYYGMDVWGQGTTVTVSSASTKGPSVFPLAPCSRSTSESTAALGCLVKDYFPEPVTVSWNSGALTSGVH
# VL: PSSLSASVGDRVTITCRASQSINSYLDWYQQKPGKAPKLLIYAASSLQSGVPSRFSGSGSGTDFTLTISSLQPEDFATYYCQQYYSTPFTFGPGTKVEIKRTVAAPSVFIFPPSDEQLKSGTASVVCLLNNFYPREAKV
# modifications: Tremelimumab VH; Tremelimumab VL
# notes: anti-CTLA4 antibody
# Tests used:
# MC38 cells [1] = test: MC38 efficacy with CD8+ T-cell depletion by anti-CD8 (Example 6); format: in vivo, mouse; settings: CD8+ T-cells depleted with anti-CD8-2.43 antibody (FIG. 8, FIG. 9)
# From the text: Treatment may cause partial regression (PR) or complete regression (CR) of the tumor in an animal.
# In a PR response, the tumor volume is 50% or less of its Day 1 volume for three consecutive measurements during the course of the study, and equal to or greater than 13.5 mm^3 for one or more of these three measurements.
# In a CR response, the tumor volume is less than 13.5 mm^3 for three consecutive measurements during the study.
# Any animal with a CR response at the end of the study was additionally classified as a tumor-free survivor (TFS).
# Animals were scored only once during the study for a PR or CR event and only as CR if both PR and CR criteria were satisfied.
# The Coefficient of Drug Interaction (CDI) (11) in were assessed for subadditive, additive, or supra-additive (synergism) properties on Day 21, the last day all evaluable animals remained on study.
# The CDI was determined according to the equation below:
# Where, • x=mean tumor volume • AB=xAB/xC • A=xA/xC • B=xB/xC […]
# On the day of implant 5×10^5 MC38 cells (0.1 mL suspension) were subcutaneously implanted into the right flank of each test animal. Tumors were monitored as their volumes approached the target range of 80-120 mm^3. […]
# Tumors were measured twice per week until the study was ended (day29 for anti-CD8+surADCx25 and anti-CD8+anti-PD1+surADCx25 groups; day 44 for surADCx25 alone and surADCx25+anti-CD8). […]
# [2] = system: CD25-positive acute myeloid leukemia (AML); test: Phase 1 study of ADCx25, weekly fractionated dosing, in relapsed or refractory AML/ALL (Example 2); format: in vivo, human
# From the text: Patients with relapsed or refractory cluster of differentiation 25 (CD25)-positive acute myeloid leukemia (AML) or CD25-positive acute lymphoblastic leukemia (ALL) who have failed, or are intolerant to, any established therapy known to provide clinical benefit at current state of disease. Patients with myelodysplastic syndrome who have received treatment with hypomethylating agents and subsequently present with CD25+ AML and who failed, or are ineligible for standard induction therapy, are eligible for treatment with ADCx25.
# Assessment of response to treatment with ADCX25 will be based on bone marrow samples (aspirate or biopsy, if aspirate unattainable). The activity of ADCX25 will be evaluated based on the Investigator's evaluation of the patient's response to ADCX25 as CR, CRi, PR, PD, or NR as defined herein.
# ADCX25 is a sterile formulation containing PBD-conjugated HuMax®-TAC (DAR≥1), HuMax®-TAC (DAR=0), and SG3249. It is provided pre-formulated in 10-mL glass vials containing approximately 30 mg of ADCX25 per vial (deliverable volume 5.4 mL at 6 mg/mL). The appropriate quantity of ADCX25 will be diluted in 50 mL of 5% dextrose in water (D5W).
# Patients will receive a 1-hour intravenous (IV) infusion of ADCX25 on Day 1 of Cycle 1. […]
# CT26 cells = test: Re-challenge of tumor-free survivors from CT26 efficacy study (Example 5); format: in vivo, mouse; settings: complete responders of Example 4 re-implanted with CT26 cells in contralateral flank; no treatment in re-challenge (FIG. 7)
# Description: On Day 1 of the re-challenge study […] CT26 cells (0.1 mL suspension) were subcutaneously implanted into the left flank (contralateral to the cell implant of example 4) and tumor growth was monitored and measured as described in example 4.
# No treatment was administered in the re-challenge study.
# MC38 cells [3] = test: Re-challenge of tumor-free survivors from MC38 efficacy study (Example 3); format: in vivo, mouse; settings: complete responders of Example 1 re-implanted with MC38 cells in contralateral flank; no treatment in re-challenge (FIG. 4)
# Description: On Day 1 of the re-challenge study, 5×10^5 MC38 cells (0.1 mL suspension) were subcutaneously implanted into the left flank (contralateral to the original cell implant) and tumor growth was monitored. No ADC or anti-PD-1 treatment was administered in the rechallenge study.
# Animal handling and tumour measurement was as in Example 1 unless otherwise stated.
# [4] = system: selected advanced solid tumors; test: Phase 1b dose-escalation study of Camidanlumab Tesirine in advanced solid tumors (Example 9); format: in vivo, human
# From the text: This is a report of preliminary data from a Phase 1b trial of Camidanlumab Tesirine (NCT03621982; ADC Therapeutics) in patients (pt) with selected advanced solid tumors […] (AST) who have failed existing therapies.
# This multicenter, open-label, dose-escalation (part 1), and dose-expansion (part 2) study is currently enrolling subjects (aged≥18 years) with selected AST. The primary objective is to evaluate the safety and tolerability and to identify the recommended dose. Secondary objectives are to assess preliminary antitumor activity, pharmacokinetics (PK), and immunogenicity.
# Subjects receive 1-hour intravenous infusions of Camidanlumab Tesirine every 3 weeks (Q3W) from a starting dose cohort of 20 μg/kg. Subsequent cohorts are enrolled at escalating doses according to a 3+3 design.
# advanced melanoma = settings: phase III trials; cited from earlier work
# [5] = 6 subjects, 20-30 μg/kg Q3W i.v., preliminary
Molecule,anti-tumor activity when CD8+ T-cells are depleted (MC38 cells [1]),clinical response of AML ([2]; 2 subjects with AML who had previously received bone marrow stem cell transfers),"response to treatment ([2]; Patient 1: relapsed AML FAB M0, 30 ug/kg QW cohort, prior allogenic transplant, after 5 cycles)",development of new tumors on re-challenge (CT26 cells),development of new tumors on re-challenge (MC38 cells [3]),number of subjects with stable disease ([4]; 20 μg/kg Q3W),"number of subjects with stable disease ([4]; 30 μg/kg Q3W, reported a few days after the cutoff date)","dose-limiting toxicities ([4]; 6 subjects, 20-30 μg/kg Q3W i.v., 21-day reporting period, preliminary, as of Apr. 16, 2019)","best response recorded (response evaluation criteria in solid tumors) [4, 5]","most common (≥3 pts) adverse events regardless of relationship [4, 5]","related high-grade AEs or serious AEs [4, 5]",overall survival compared to the standard of care (temozolomide or dacarbazine) (advanced melanoma)
"ADCx25: human antibody against human CD25 (AB12, HuMax-TAC) attached to a pyrrolobenzodiazepine (PBD) warhead via a cleavable linker",dependent on CD8+ T-cells,complete remission,CRi,did not develop new tumors,did not develop new tumors,2,2,No dose-limiting toxicities,Stable disease,fatigue and nausea,no reported grade ?3 AEs or serious AEs considered related,
B1,,,,,,,,,,,,did not significantly increase

# — US20220111065A1, “MOLECULAR ADJUVANT” (ADC THERAPEUTICS SA, priority 2018, published 2022)
